Reference: patent US20220340916A1, “METHODS FOR TRANSFORMING WHEAT EXPLANTS AND COMPOSITIONS THEREFOR” (MONSANTO TECHNOLOGY LLC, priority 2013, published 2022)

Row | Compound | effect of ethanol exposure on intact seed germination on media (wheat seed; 70% ethanol, FIG. 2) | germination of intact seeds as measured by root and shoot development on media (wheat seed; sanitization treatments involving ethanol, FIG. 1) | viability of WDSDEs produced from treated seed (WDSDEs) | cleanliness of WDSDEs excised from treated seed (WDSDEs; seed sanitization, 10% Clorox bleach, ethanol used cold (~0° C.)) | effect of soaking WDSDEs on oxygen consumption (wheat WDSDEs) | effect on oxygen consumption when added to the reaction chamber during an oxygen measurement (wheat WDSDEs)
1 | CCO [ethanol] | time-dependent effect | reduced germination | acceptable | less efficient |  | 
2 | O=C(NO)c1ccccc1O [SHAM, salicylhydroxamic acid] |  |  |  |  | No effect | Very little effect
